Results as given in patent publication US20070117182A1, “Nucleic acids conferring transcriptional responsiveness on the RANKL gene promoter and uses thereof” (Wisconsin Alumni Research Foundation, priority 2005, published 2007).

Experiments:
[1] = system: RANKL gene upstream regions D1-D5; assay: ChIP analysis of transcription factor binding to the RANKL gene in ST2 cells; format: cell-based, mouse; conditions: 6 hours
Protocol: FIG. 4. Confirmation of ChIP/chip data using ChIP. A) Linear arrangement of RANKL locus re-oriented 5′ to 3′ (left to right) indicating the positions of D5 to D1, P2, and P1/TSS. Designation of primer sets used for detection in ChIP is indicated. B) ST2 cells were treated with either vehicle or 1,25(OH)2D3 and then subjected to ChIP using antibodies to VDR, RXR or IgG. Precipitated DNA was evaluated using the primer sets identified in A.
FIG. 5. […] ST2 cells were treated with the above hormones and after 6 hours subjected to ChIP analysis using antibodies to VDR, RXR, GR, C/EBP, β, RNA pol II, and IgG. Precipitated DNA was evaluated for enrichment of the indicated regions of the RANKL gene.
FIG. 10. ChIP analysis of transcription factor binding to RL D5, the TSS and intervening regions of the RANKL locus in response to 1,25(OH)2D3, forskolin and oncostatin M (OSM). ST2 cells were treated for 6 hr with the indicated inducing agents and then subjected to ChIP analysis using antibodies to the indicated factors. Precipitated DNA was analyzed by PCR for enrichment of IS7, D5, IS6 and the TSS of the RANKL gene locus. See text for details of results.
The isolated DNA was then evaluated by PCR using primers as depicted in the diagram seen in FIG. 4a which were designed to amplify small DNA segments within the 5 regions as well as segments located at intervening sites (IS) outside the five regions.
The inventors hypothesized that GC's might perhaps enhance VDR binding to RANKL regulatory regions. […] The inventors focused on the RL-CCL region (D5) and amplified the precipitated DNA using primers to this region of the gene as well as to D4, D3 and TSS and intervening regions. […] The inventors also explored the possibility that C/EBPbeta might similarly participate in the RANKL activation process. C/EBPbeta plays a significant role in the regulation of osteoblastic genes, and is found associated with both 1,25(OH)2D3 and GC target genes.
In addition to 1,25(OH)2D3 and GCs, RANKL expression is also known to be modulated by such factors as PTH, PGE2, the gp130-activating cytokines IL-6 and OSM, as well as IL-1beta and TNFalpha. […] Forskolin was used as substitute for PTH, however, as ST2 cells are deficient in PTH receptor (PTHR). Both PTH/forskolin and PGE2 are known to induce RANKL gene expression via CREB whereas OSM functions via Stat3. […] The inventors therefore explored the possibility that the RL-CCL might represent a focal target for these inducers via either CREB or Stat3 in the RANKL gene locus. ST2 cells were treated with either vehicle, 1,25(OH)2D3, forskolin or OSM for a 6 hour period and then subjected to a ChIP analysis using antibodies to VDR, C/EBPbeta, CREB, phospho-CREB, ATF-2, ATF-4, Stat3, RNA pol II and control IgG. Isolated DNA was then subjected to amplification using primers corresponding to the D5 region (RL-CCL) of the RANKL gene. As controls, the inventors also assessed the extent to which the immunoprecipitations led to the enrichment of DNA at sites surrounding the D5 region of the RANKL gene.

[2] = system: mouse RANKL VDRE; assay: RANKL VDRE in TK promoter, luciferase reporter in ST2 cells; format: cell-based
Excerpt: FIG. 8. The mouse RANKL VDRE is inducible by 1,25(OH)2D3. The mouse RANKL VDRE (sequence seen in FIG. 7) was cloned into the TK promoter, transfected into ST2 cells and evaluated for transcriptional regulation by 1,25(OH)2D3. A 10 to 15-fold induction mediated by the RL VDRE is observed. A similar induction is observed in the context of the RL minimal promoter. Data are the average of triplicate determinations, SEM.
ChIP data are of inherent low resolution, making it difficult to identify the specific sequence to which the VDR/RXR heterodimer binds within the RL-CCL. 1,25(OH)2D3-inducibility of the RL-CCL DNA fragment, however, provides the opportunity to precisely map the location of the VDRE using mutagenesis. The inventors therefore subjected the RL-CCL DNA fragment to 5′ deletion analysis using PCR and prepared a series of fragments of the RL-CCL with increasingly fore-shortened 5′ termini as illustrated in FIG. 7a. These RANKL gene fragments were similarly cloned into the pTK-luc vector and their activities together with the wildtype D5 fragment examined in response to 1,25(OH)2D3, glucocorticoids and the combination following transfection into ST2 cells. […] As well, this region of the RL-CCL also contains a number of consensus GR binding half-sites, and at least one consensus GRE duplex site.

[3] = system: human D5 region (TK-hRLD5); assay: TK-hRLD5 luciferase reporter in MG-63 cells; format: cell-based; conditions: 24 hours
Protocol: FIG. 14. […] Cells were treated with the indicated inducers for the periods identified and isolated RNA subjected to PCR analysis for Cyp24, RANKL and b-actin. […] Two different primer sets to the human D5 region were used to assess VDR binding. […] Luciferase activity was analysed 24 hours later. […] Data are the average of triplicate determinations, SEM.
Approximately 1000 bp of the human RANKL gene comprising D5 was cloned and inserted into a TK-luciferase expression vector (TK-hRLD5). […] The D5 RL region and an additional region immediately upstream in both the mouse and human genes contain elements that mediate the actions of parathyroid hormone, a variety of prostaglandins, cytokines such as oncostatin M and IL-6, as well as IL-1 and others.

C=C1/C(=C\C=C2/CCC[C@]3(C)[C@@H]([C@H](C)CCCC(C)(C)O)CC[C@@H]23)C[C@@H](O)C[C@@H]1O [1,25(OH)2D3]
CREB binding to the D5 region [1]: modestly increased CREB association | RNA pol II recruitment to D1-D5 sites and TSS [1]: recruited | Stat3 binding to the D5 region [1]: some Stat3 binding can be seen | VDR and RXR binding at D1-D5 ([1]; ChIP, -16, -22, -60, -69, -77 kb from TSS): clearly enriched | VDR binding to RANKL regulatory regions (D5) ([1]; agent alone): induced the binding of the VDR | induction mediated by the RL VDRE [2]: 10 to 15 fold | activity of human D5 region [3]: induces
